pIC50: −log10 of the molar value. Values after ≈ are worked out from the molar mass of the structure shown.
How the values were obtained:
[1] = Lipophilicity, log D of the compound; assay type: physicochemical; conditions: octanol/water
[2] = biological target: T1, Transcriptional regulator MvfR (Pseudomonas aeruginosa PA14, UniProt A0A072ZLE6); assay: Inverse agonist activity at Pseudomonas aeruginosa PqsR extracted from Escherichia coli Dh5alpha co-expressing lacZ incubated with test compound in presence of pseudomonas quinolone signal (PQS) by ONPG/heterologous reporter gene assay
T1 sequence (A0A072ZLE6 whole entry): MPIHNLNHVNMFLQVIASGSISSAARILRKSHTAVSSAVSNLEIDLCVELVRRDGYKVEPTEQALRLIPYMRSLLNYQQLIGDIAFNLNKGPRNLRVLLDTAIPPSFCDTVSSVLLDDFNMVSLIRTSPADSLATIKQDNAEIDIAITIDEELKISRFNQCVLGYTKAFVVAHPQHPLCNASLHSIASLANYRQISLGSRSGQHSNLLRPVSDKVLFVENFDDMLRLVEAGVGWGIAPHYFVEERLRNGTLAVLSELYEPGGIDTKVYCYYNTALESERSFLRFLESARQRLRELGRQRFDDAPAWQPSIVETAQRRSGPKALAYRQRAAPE

Pseudomonas aeruginosa = assay: Antivirulence activity against Pseudomonas aeruginosa PA14 assessed as inhibition of pyocyanin biosynthesis incubated for 16 hrs under agitation by photometric analysis; assay type: functional, organism-based; conditions: PA14, 16 h
[3] = Kinetic aqueous solubility of the compound in PBS buffer incubated for 5 mins by turbidimetric aqueous solubility assay; assay type: physicochemical; conditions: read-out: Kinetic_solubility
[4] = Metabolic stability in mouse liver microsomes assessed as half life at 1 uM measured after 30 mins by HPLC-MS/MS analysis; assay type: ADME, Microsome
[5] = Plasma protein binding in human; assay type: ADME, cell-free; conditions: read-out: PPB
[6] = Cytotoxicity against human HEK293 cells assessed as viable cells; assay type: toxicity, cell-based; conditions: read-out: LD50 (the source's name)
Cytochrome P450 2D6 = Cytochrome P450 2D6 (Homo sapiens, UniProt P10635); assay: Inhibition of CYP2D6 (unknown origin); assay type: ADME
Chain of Cytochrome P450 2D6 (P10635 whole entry): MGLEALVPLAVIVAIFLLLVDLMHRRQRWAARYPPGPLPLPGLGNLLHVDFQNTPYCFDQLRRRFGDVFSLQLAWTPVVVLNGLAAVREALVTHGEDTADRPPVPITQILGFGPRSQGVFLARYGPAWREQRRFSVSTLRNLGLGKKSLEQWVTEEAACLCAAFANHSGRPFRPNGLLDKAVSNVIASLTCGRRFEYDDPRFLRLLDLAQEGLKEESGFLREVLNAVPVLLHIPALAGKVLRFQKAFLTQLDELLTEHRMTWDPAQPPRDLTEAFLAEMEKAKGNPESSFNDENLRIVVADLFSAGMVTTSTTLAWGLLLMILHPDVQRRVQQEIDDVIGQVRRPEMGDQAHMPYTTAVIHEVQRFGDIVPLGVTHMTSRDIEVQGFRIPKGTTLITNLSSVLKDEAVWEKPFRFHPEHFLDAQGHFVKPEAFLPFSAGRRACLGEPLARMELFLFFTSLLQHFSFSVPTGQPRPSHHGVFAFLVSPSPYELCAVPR

[7] = Cytotoxicity against human HepG2 cells assessed as viable cells at 25 uM relative to control; assay type: toxicity, cell-based; conditions: read-out: Activity
[8] = Plasma protein binding in mouse; assay type: ADME, cell-free; conditions: read-out: PPB
[9] = Cytotoxicity against human HepG2 cells assessed as viable cells; assay type: toxicity, cell-based; conditions: read-out: LD50 (the source's name)
Cytochrome P450 2C9 = Cytochrome P450 2C9 (Homo sapiens, UniProt P11712); assay: Inhibition of CYP2C9 (unknown origin); assay type: ADME
Chain of Cytochrome P450 2C9 (P11712 whole entry): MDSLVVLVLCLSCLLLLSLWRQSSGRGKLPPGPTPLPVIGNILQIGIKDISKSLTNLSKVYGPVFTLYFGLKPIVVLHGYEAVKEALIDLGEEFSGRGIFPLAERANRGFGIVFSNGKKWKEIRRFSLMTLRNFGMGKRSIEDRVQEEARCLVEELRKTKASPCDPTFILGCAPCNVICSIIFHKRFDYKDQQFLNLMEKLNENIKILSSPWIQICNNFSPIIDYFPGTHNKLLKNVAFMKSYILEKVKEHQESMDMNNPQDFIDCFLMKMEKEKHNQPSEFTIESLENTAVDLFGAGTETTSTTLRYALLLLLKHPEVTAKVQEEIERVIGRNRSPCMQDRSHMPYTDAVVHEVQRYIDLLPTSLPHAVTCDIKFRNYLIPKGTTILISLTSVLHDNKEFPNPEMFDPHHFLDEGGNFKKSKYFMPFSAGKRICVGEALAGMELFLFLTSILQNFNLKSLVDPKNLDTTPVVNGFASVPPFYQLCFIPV

CYP1A = biological target: T2, CYP1A (Homo sapiens, UniProt P04798+P05177); assay: Inhibition of CYP1A (unknown origin); assay type: ADME, protein assay
T2 sequence (P04798 whole entry): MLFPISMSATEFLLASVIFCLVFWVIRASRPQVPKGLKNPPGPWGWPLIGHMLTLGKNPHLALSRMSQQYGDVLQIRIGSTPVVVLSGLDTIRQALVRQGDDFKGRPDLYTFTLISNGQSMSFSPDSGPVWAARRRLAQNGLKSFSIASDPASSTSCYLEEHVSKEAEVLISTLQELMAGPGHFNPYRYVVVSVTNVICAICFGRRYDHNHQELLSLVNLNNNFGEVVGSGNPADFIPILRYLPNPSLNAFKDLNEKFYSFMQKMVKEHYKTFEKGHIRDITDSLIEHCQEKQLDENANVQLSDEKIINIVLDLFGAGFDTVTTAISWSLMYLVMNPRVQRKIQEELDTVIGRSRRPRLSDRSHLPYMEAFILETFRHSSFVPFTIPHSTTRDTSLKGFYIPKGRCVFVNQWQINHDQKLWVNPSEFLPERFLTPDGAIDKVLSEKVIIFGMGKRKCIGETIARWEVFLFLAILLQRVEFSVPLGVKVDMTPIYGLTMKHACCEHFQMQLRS
T2 sequence (P05177 whole entry): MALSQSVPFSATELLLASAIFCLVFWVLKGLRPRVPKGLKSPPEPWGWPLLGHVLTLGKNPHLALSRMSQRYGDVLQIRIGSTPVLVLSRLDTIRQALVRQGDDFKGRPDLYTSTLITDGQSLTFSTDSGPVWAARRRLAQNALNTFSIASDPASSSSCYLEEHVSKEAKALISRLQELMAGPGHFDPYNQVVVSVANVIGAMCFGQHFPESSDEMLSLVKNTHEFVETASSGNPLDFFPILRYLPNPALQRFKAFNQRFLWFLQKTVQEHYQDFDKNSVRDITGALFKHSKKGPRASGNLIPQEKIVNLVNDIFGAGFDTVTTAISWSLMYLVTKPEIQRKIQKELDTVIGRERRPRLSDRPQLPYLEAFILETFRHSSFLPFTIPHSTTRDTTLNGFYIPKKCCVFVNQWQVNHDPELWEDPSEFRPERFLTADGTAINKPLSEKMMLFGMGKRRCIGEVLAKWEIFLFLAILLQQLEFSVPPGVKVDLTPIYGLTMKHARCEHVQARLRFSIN

[10] = biological target: Voltage-gated inwardly rectifying potassium channel KCNH2 (Homo sapiens, UniProt Q12809); assay: Inhibition of hERG; assay type: toxicity
Chain of Voltage-gated inwardly rectifying potassium channel KCNH2 (Q12809 whole entry): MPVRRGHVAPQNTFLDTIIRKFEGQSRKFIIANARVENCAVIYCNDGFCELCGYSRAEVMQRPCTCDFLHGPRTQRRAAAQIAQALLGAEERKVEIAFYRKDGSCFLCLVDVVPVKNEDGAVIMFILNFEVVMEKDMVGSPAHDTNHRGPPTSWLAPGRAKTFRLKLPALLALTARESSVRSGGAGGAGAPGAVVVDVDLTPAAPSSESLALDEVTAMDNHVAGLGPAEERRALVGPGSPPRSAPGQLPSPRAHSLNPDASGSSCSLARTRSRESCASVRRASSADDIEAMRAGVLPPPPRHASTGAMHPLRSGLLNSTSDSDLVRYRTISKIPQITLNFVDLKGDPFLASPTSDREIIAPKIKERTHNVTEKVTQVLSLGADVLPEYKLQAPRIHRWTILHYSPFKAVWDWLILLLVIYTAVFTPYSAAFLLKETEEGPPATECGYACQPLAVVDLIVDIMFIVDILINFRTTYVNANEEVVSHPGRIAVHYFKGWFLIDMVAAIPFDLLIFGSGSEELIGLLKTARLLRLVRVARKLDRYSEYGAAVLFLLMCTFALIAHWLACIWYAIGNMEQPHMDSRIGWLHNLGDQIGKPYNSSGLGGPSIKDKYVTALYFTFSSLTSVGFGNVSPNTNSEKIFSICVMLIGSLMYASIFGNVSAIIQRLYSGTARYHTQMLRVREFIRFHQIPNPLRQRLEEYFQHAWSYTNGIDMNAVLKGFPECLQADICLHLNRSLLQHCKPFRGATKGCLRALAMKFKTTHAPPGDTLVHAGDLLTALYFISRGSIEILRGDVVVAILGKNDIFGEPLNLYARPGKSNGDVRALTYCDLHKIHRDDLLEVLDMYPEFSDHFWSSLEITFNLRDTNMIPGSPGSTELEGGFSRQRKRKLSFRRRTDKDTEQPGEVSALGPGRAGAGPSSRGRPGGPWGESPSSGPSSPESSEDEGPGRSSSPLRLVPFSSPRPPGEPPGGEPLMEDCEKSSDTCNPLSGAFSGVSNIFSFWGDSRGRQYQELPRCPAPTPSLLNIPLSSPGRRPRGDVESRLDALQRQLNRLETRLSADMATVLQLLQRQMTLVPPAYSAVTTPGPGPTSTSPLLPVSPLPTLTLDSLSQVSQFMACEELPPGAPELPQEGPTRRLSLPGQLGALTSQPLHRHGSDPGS

[11] = Cytotoxicity against human HEK293 cells assessed as viable cells at 25 uM relative to control; assay type: toxicity, cell-based; conditions: read-out: Activity
[12] = Metabolic stability in human liver S9 fraction assessed as half life; assay type: ADME, subcellular

Row | SMILES | logD [1] | pIC50 [2] | pIC50 (Pseudomonas aeruginosa) | solubility kinetic at 5 min [3] | half-life at 1 µM [4] | also measured
1 | FC(F)(F)c1cc(NCc2cnc(-c3ccc(Cl)cc3)s2)ccn1 | 4.28 | 7.17 | 6.23 | 36 µM (≈ 13.3 µg/mL) | 122 min | 
2 | FC(F)(F)c1cc(NCc2cnc(-c3ccc(Oc4ccccc4)cc3)s2)ccn1 | 3.29 | 7.77 | 6.56 | 6 µM (≈ 2.56 µg/mL) | 24 min | 
3 | CC(C)Oc1ccc(-c2ncc(CNc3cc(Cl)nc(C(F)(F)F)c3)s2)cc1 | 5.4 | 8.10 | 7.06 | 35 µM (≈ 15 µg/mL) | 15 min | 
4 | FC(F)(F)c1cc(NCc2cnc(-c3ccc(C4CC4)cc3)s2)ccn1 | 4.19 | 7.55 | 6.75 | 7 µM (≈ 2.63 µg/mL) | 14 min | 
5 | CC(C)Oc1ccc(-c2ncc(CNc3cc(Cl)nc(C(F)(F)F)c3)s2)cc1Cl | 5.21 | 8.00 | 6.96 | 7 µM (≈ 3.24 µg/mL) | 28 min | 
6 | CC(C)Oc1ccc(-c2ncc(CNc3cc(C#N)nc(C(F)(F)F)c3)s2)cc1Cl | 5.01 | 7.72 | 6.94 | 25 µM (≈ 11.3 µg/mL) | 58 min | 
7 | CC(C)Nc1ccc(-c2ncc(CNc3ccnc(C(F)(F)F)c3)s2)cc1 |  | 6.37 | 6.30 | 39 µM (≈ 15.3 µg/mL) | 7 min | 
8 | Clc1cc(NCc2cnc(-c3ccc(Oc4ccccc4)cc3)s2)ccn1 | 4.16 | 8.05 | 6.14 | 2 µM (≈ 0.788 µg/mL) | 55 min | 
9 | FC(F)(F)c1cc(NCc2cn(-c3ccc(Oc4ccccc4)cc3)nn2)ccn1 | 4.22 |  | 6.70 | 8 µM (≈ 3.29 µg/mL) | 10 min | fraction unbound [5]: < 0.01; CC50 [6]: ~25000 nM; pIC50 (Cytochrome P450 2D6): < 4.60; viability at 25 µM [7]: 55%; fraction unbound [8]: < 0.01; CC50 [9]: ~25000 nM; pIC50 (Cytochrome P450 2C9): < 4.60; pIC50 (CYP1A): < 4.60; pIC50 [10]: < 4.60; viability at 25 µM [11]: 48%; half-life [12]: > 60 min
10 | FC(F)(F)c1cc(OCc2cnc(-c3ccc(Oc4ccccc4)cc3)s2)ccn1 | 3.87 |  | < 5.30 |  |  | 
11 | N#Cc1cc(NCc2cnc(-c3ccc(Oc4ccccc4)cc3)s2)ccn1 | 3.15 | 7.52 | 6.54 | 7 µM (≈ 2.69 µg/mL) | 39 min | 
12 | FC(F)(F)c1cc(NCc2ncc(-c3ccc(Oc4ccccc4)cc3)s2)ccn1 | 5.54 | 7.29 | 6.29 | 26 µM (≈ 11.1 µg/mL) | 10 min | 
13 | COc1ccc(-c2ncc(CNc3ccnc(C(F)(F)F)c3)s2)cc1C | 4.02 | 7.24 | 6.24 | 45 µM (≈ 17.1 µg/mL) | 1 min | 
14 | FC(F)(F)c1cc(NCc2cc(-c3ccc(Oc4ccccc4)cc3)n[nH]2)ccn1 | 4.35 | 6.93 | 6.28 | 15 µM (≈ 6.16 µg/mL) | 23 min | 
15 | COc1c(C)cc(-c2ncc(CNc3ccnc(C(F)(F)F)c3)s2)cc1C |  | < 8.30 | < 8.30 |  |  | 
16 | FC(F)(F)c1cc(NCc2ccc(-c3ccc(Oc4ccccc4)cc3)o2)ccn1 |  |  | < 5.30 | 63 µM (≈ 25.9 µg/mL) |  | 
17 | FC(F)(F)c1cc(SCc2cnc(-c3ccc(Oc4ccccc4)cc3)s2)ccn1 | 4.03 | 6.95 | 5.63 | 7 µM (≈ 3.11 µg/mL) | 11 min | 
18 | FC(F)(F)c1cc(NCc2cnc(-c3ccc(Cl)nc3)s2)ccn1 |  | 6.66 | < 8.30 | 200 µM (≈ 74.2 µg/mL) | 49 min | 

Row | SMILES | logD [1] | pIC50 [2] | pIC50 (Pseudomonas aeruginosa) | solubility kinetic at 5 min [3] | half-life at 1 µM [4] | also measured
19 | CC(C)Oc1ccc(-c2ncc(CNc3cc(C#N)nc(C(F)(F)F)c3)s2)cc1 | 5.12 | 7.08 | 6.65 | 6 µM (≈ 2.51 µg/mL) | 32 min | 
20 | COc1ccc(-c2ncc(CNc3ccnc(C(F)(F)F)c3)s2)cc1 |  | 7.08 | 6.35 |  |  | 
21 | FC(F)(F)c1cc(NCc2ncsc2-c2ccc(Oc3ccccc3)cc2)ccn1 |  | < 8.30 | < 8.30 |  |  | 
22 | FC(F)(F)c1cc(NCc2nnc(-c3ccc(Oc4ccccc4)cc3)o2)ccn1 | 4.12 | 7.64 | 6.39 | 46 µM (≈ 19 µg/mL) | 23 min | 
23 | CN(C)c1ccc(-c2ncc(CNc3ccnc(C(F)(F)F)c3)s2)cc1 |  | 6.14 | < 5.30 | 13 µM (≈ 4.92 µg/mL) | 45 min | 
24 | CC(C)Oc1ccc(-c2ncc(CNc3cc(Cl)nc(Cl)c3)s2)cc1 | 5.62 | 7.54 | 7.06 | 8 µM (≈ 3.15 µg/mL) | 37 min | 
25 | N#Cc1ccc(NCc2cnc(-c3ccc(Oc4ccccc4)cc3)s2)nc1 |  | 6.10 | < 5.30 | 5 µM (≈ 1.92 µg/mL) | 20 min | 
26 | CC(C)Oc1ccc(-c2ncc(CNc3ccnc(Cl)c3)s2)cc1 | 5.09 | 7.35 | 6.52 | 22 µM (≈ 7.92 µg/mL) | 22 min | 
27 | FC(F)(F)c1cc(NCc2nc(-c3ccc(Oc4ccccc4)cc3)cs2)ccn1 |  | 6.15 | < 5.30 | 45 µM (≈ 19.2 µg/mL) | 13 min | 
28 | FC(F)(F)c1cc(NCc2csc(-c3ccc(Oc4ccccc4)cc3)n2)ccn1 | 5.04 | 7.28 | 5.86 | 18 µM (≈ 7.69 µg/mL) | 18 min | 
29 | FC(F)(F)c1ccc(NCc2cnc(-c3ccc(Oc4ccccc4)cc3)s2)cn1 | 3.42 | 7.42 | 6.37 | 8 µM (≈ 3.42 µg/mL) | 10 min | 
30 | FC(F)(F)c1cc(NCc2cc(-c3ccc(Oc4ccccc4)cc3)no2)ccn1 | 5.04 | 7.52 | 6.47 | 8 µM (≈ 3.29 µg/mL) | 36 min | 
31 | CC(C)Oc1ccc(-c2ncc(CNc3ccnc(C(F)(F)F)c3)s2)cc1 | 4.01 | 7.74 | 6.93 | 18 µM (≈ 7.08 µg/mL) | 29 min | 
32 | FC(F)(F)c1cc(NCc2cnc(-c3ccc(Cl)s3)s2)ccn1 |  | 7.07 | < 5.30 | 43 µM (≈ 16.2 µg/mL) | 2 min | 
33 | FC(F)(F)c1cc(NCc2nnc(-c3ccc(Oc4ccccc4)cc3)[nH]2)ccn1 | 3.96 | 7.03 | 6.16 | 48 µM (≈ 19.7 µg/mL) | 23 min | 
34 | N#Cc1ccc(NCc2cnc(-c3ccc(Oc4ccccc4)cc3)s2)cn1 | 3.52 | 8.30 | 6.12 | 6 µM (≈ 2.31 µg/mL) | 38 min | 
35 | COc1ccc(-c2ncc(CNc3ccnc(C(F)(F)F)c3)s2)cc1Cl | 4.84 | 7.40 | 6.67 | 25 µM (≈ 10 µg/mL) | 1 min | 
